Reference: PubChem BioAssay AID248 (DTP/NCI, 2004)
Toxic doses and inconclusive results are not listed. Rule as the data show it: active = T/C of 150% or more; inactive = T/C below 125%.

System: L1210 leukemia ip in BDF1 mice, survival T/C
Assay: NCI In Vivo Anticancer Drug Screen. Data for tumor model L1210 Leukemia (intraperitoneal) in B6D2F1 (BDF1) mice
Conditions: endpoint: mean survival time, higher = longer survival
Procedure, shortened: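 Antitumor effect is assessed in tumor-bearing animals. Survival in the compound arm is compared with a vehicle-dosed control arm and expressed as their quotient.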

[1] = dose: 100.0 mg/kg/injection, schedule: Q04DX002 (ip), vehicle: Klucel (hydroxypropylcellulose) (HPC)
[2] = dose: 200.0 mg/kg/injection, schedule: Q04DX002 (ip), vehicle: Klucel (hydroxypropylcellulose) (HPC)
[3] = dose: 100.0 mg/kg/injection, schedule: Q04DX003 (ip), vehicle: saline with Tween-80
[4] = dose: 200.0 mg/kg/injection, schedule: Q04DX003 (ip), vehicle: saline with Tween-80
[5] = dose: 400.0 mg/kg/injection, schedule: Q04DX003 (ip), vehicle: saline with Tween-80
[6] = dose: 100.0 mg/kg/injection, schedule: Q04DX003 (ip), vehicle: Klucel (hydroxypropylcellulose) (HPC)
[7] = dose: 200.0 mg/kg/injection, schedule: Q04DX003 (ip), vehicle: Klucel (hydroxypropylcellulose) (HPC)
[8] = dose: 50.0 mg/kg/injection, schedule: Q01DX001 (ip), vehicle: saline
[9] = dose: 100.0 mg/kg/injection, schedule: Q01DX001 (ip), vehicle: saline

Measured: T/C

CCCCCCC(=O)/C=C/c1ccc(N(C)C)cc1
inactive: dose: 100.0 mg/kg/injection, schedule: Q01DX001 (sc), vehicle: steriod suspending solution 97 % of control | dose: 100.0 mg/kg/injection, schedule: Q04DX003 (sc), vehicle: steriod suspending solution 105 % of control | dose: 200.0 mg/kg/injection, schedule: Q01DX001 (sc), vehicle: steriod suspending solution 105 % of control | dose: 200.0 mg/kg/injection, schedule: Q04DX003 (sc), vehicle: steriod suspending solution 103 % of control | dose: 400.0 mg/kg/injection, schedule: Q01DX001 (sc), vehicle: steriod suspending solution 97 % of control | dose: 400.0 mg/kg/injection, schedule: Q04DX003 (sc), vehicle: steriod suspending solution 102 % of control

CCCCCC(=O)N1CC(C)OC(C)C1 (configuration not stated)
inactive: [1] 94 % of control | [2] 97 % of control | dose: 400.0 mg/kg/injection, schedule: Q04DX002 (ip), vehicle: Klucel (hydroxypropylcellulose) (HPC) 87 % of control

CC(O)C(O)C(N)CC=O (configuration not stated)
inactive: dose: 5.0 mg/kg/injection, schedule: Q01DX001 (ip), vehicle: saline 101 % of control | dose: 10.0 mg/kg/injection, schedule: Q01DX001 (ip), vehicle: saline 113 % of control | dose: 20.0 mg/kg/injection, schedule: Q01DX001 (ip), vehicle: saline 97 % of control | dose: 40.0 mg/kg/injection, schedule: Q01DX001 (ip), vehicle: saline 98 % of control | dose: 100.0 mg/kg/injection, schedule: Q01DX009 (ip), vehicle: saline 102 % of control | dose: 200.0 mg/kg/injection, schedule: Q01DX009 (ip), vehicle: saline 97 % of control | dose: 400.0 mg/kg/injection, schedule: Q01DX009 (ip), vehicle: saline 97 % of control

C=C(C=O)C1CCC2=C(CCC3(C)C(C(C)CCCC(C)C)CCC23C)C1(C)CCC#N (configuration not stated)
inactive: [3] 93 % of control | [4] 96 % of control | [5] 93 % of control

CCCCNCCOC(=O)c1ccc(N)cc1
inactive: dose: 75.0 mg/kg/injection, schedule: Q01DX001 (ip), vehicle: saline 106 % of control

NC(N)=NC=O
inactive: dose: 100.0 mg/kg/injection, schedule: Q04DX002 (ip), vehicle: saline with Tween-80 105 % of control | dose: 200.0 mg/kg/injection, schedule: Q04DX002 (ip), vehicle: saline with Tween-80 98 % of control

COC1=C(NCc2ccccc2)C(=O)C(OC)=C(NCc2ccccc2)C1=O
inactive: dose: 50.0 mg/kg/injection, schedule: Q01DX001 (ip), vehicle: carboxymethylcellulose (CMC) 113 % of control | dose: 100.0 mg/kg/injection, schedule: Q01DX001 (ip), vehicle: carboxymethylcellulose (CMC) 101 % of control | dose: 100.0 mg/kg/injection, schedule: Q01DX009 (ip), vehicle: Klucel (hydroxypropylcellulose) (HPC) 92 % of control | [6] 90 % of control | dose: 200.0 mg/kg/injection, schedule: Q01DX001 (ip), vehicle: carboxymethylcellulose (CMC) 107 % of control | dose: 200.0 mg/kg/injection, schedule: Q01DX009 (ip), vehicle: Klucel (hydroxypropylcellulose) (HPC) 95 % of control | [7] 93 % of control | dose: 400.0 mg/kg/injection, schedule: Q01DX001 (ip), vehicle: carboxymethylcellulose (CMC) 107 % of control | dose: 400.0 mg/kg/injection, schedule: Q01DX009 (ip), vehicle: Klucel (hydroxypropylcellulose) (HPC) 92 % of control | dose: 400.0 mg/kg/injection, schedule: Q04DX003 (ip), vehicle: Klucel (hydroxypropylcellulose) (HPC) 97 % of control

COC1OC2COC(C2OS(=O)(=O)c2ccc(C)cc2)C1OS(=O)(=O)c1ccc(C)cc1 (configuration not stated)
inactive: dose: 50.0 mg/kg/injection, schedule: Q04DX002 (ip), vehicle: Klucel (hydroxypropylcellulose) (HPC) 94 % of control | [1] 94 % of control | [2] 98 % of control

CC(=O)c1ccc(CC(C)C)cc1
inactive: dose: 150.0 mg/kg/injection, schedule: Q01DX009 (ip), vehicle: Klucel (hydroxypropylcellulose) (HPC) 90 % of control | dose: 300.0 mg/kg/injection, schedule: Q01DX009 (ip), vehicle: Klucel (hydroxypropylcellulose) (HPC) 94 % of control

CCCNCCCSCc1ccccc1
inactive: [8] 111 % of control | [9] 103 % of control

Clc1nn2nnnc2c2ccccc12
inactive: dose: 6.25 mg/kg/injection, schedule: Q04DX002 (ip), vehicle: Klucel (hydroxypropylcellulose) (HPC) 93 % of control | dose: 12.5 mg/kg/injection, schedule: Q04DX002 (ip), vehicle: Klucel (hydroxypropylcellulose) (HPC) 93 % of control | dose: 25.0 mg/kg/injection, schedule: Q04DX002 (ip), vehicle: Klucel (hydroxypropylcellulose) (HPC) 96 % of control | dose: 25.0 mg/kg/injection, schedule: Q04DX003 (ip), vehicle: saline with Tween-80 98 % of control | dose: 50.0 mg/kg/injection, schedule: Q04DX003 (ip), vehicle: saline with Tween-80 101 % of control | [3] 98 % of control

O=C(CCCC(=O)N/N=C/c1c(O)ccc2ccccc12)N/N=C/c1c(O)ccc2ccccc12
inactive: [8] 96 % of control | [9] 96 % of control | dose: 200.0 mg/kg/injection, schedule: Q01DX001 (ip), vehicle: saline 96 % of control | dose: 400.0 mg/kg/injection, schedule: Q01DX001 (ip), vehicle: saline 93 % of control

Cc1c(C)c(C)c(CSC(N)=Nc2ccccc2)c(C)c1C
inactive: dose: 50.0 mg/kg/injection, schedule: Q01DX009 (ip), vehicle: saline with Tween-80 98 % of control | dose: 100.0 mg/kg/injection, schedule: Q01DX009 (ip), vehicle: saline with Tween-80 102 % of control | dose: 200.0 mg/kg/injection, schedule: Q01DX009 (ip), vehicle: saline with Tween-80 102 % of control

Cc1ccc(NC(=O)Oc2ccc3ccccc3c2)c([N+](=O)[O-])c1
inactive: [3] 99 % of control | [4] 99 % of control | [5] 89 % of control

O=C(O)c1cccc2c1-c1ccc(Cl)cc1C2
inactive: [6] 104 % of control | [7] 102 % of control
